In article PMC10353390, “Biological and Structural Analyses of New Potent Allosteric Inhibitors of HIV-1 Integrase” (Antimicrobial Agents and Chemotherapy, 2023):

Columns and labels:
[1] = test system: NL4-3 HIV-1 with INLAI-selected IN single point mutations; type: cell-based
[2] = Cytotoxicity assay in MT4 cells; type: cell-based; conditions: human, MT4 cells (proliferating human T-cell line), CellTiter-Glo
Text: Growth inhibition was monitored in a proliferating human T-cell line (MT4) with different concentrations of compounds, using the CellTiter-Glo luminescent reagent (Promega), as previously described ([12]).

[3] = test system: primary HIV-1 isolates with polymorphisms at IN positions 124 and 125; assay: Multiple-round infection of MT4 cells with primary HIV-1 isolates polymorphic at IN positions 124 and 125; type: cell-based; conditions: primary isolate
Outline: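 Exponentially growing MT4 cells at 10^6/mL infected for 2 h at MOI 0.001 in the presence of varying compound concentrations. Cell viability quantified by CellTiter-Glo luminescence.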

[4] = target: HIV-1 IN-LEDGF/p75 interaction (Human immunodeficiency virus type 1 group M subtype B, UniProt P12497); assay: biochemical
[5] = test system: recombinant NL4-3 viruses with polymorphisms at IN positions 124 and 125; assay: Multiple-round infection of MT4 cells with recombinant NL4-3 viruses polymorphic at IN positions 124 and 125; type: cell-based, HIV-1
Outline: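 MT4 cells (10^6/mL) infected with NL4-3 carrying IN 124/125 polymorphisms (15 combinations) at MOI 0.001 for 2 h with compound present. Viability read by CellTiter-Glo luminescence; EC50 expressed as fold change versus wild-type NL4-3 (Thr124/Thr125).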

## Cc1ccc(C2CC2)c(-c2ccc3c(c2)CCCO3)c1[C@H](OC(C)(C)C)C(=O)O [BDM-2]
[1]
  EC50 fold change compared to wild type NL4-3, A128T: 4
  EC50 fold change compared to wild type NL4-3, H171Q: 3
  EC50 fold change compared to wild type NL4-3, N222K: 2
  EC50 fold change compared to wild type NL4-3, T174I: 253
  EC50 fold change compared to wild type NL4-3, Y99H: 4
[2]
  CC50: 69 ± 8 µM
[3]; IN 124/125 AA
  Fold change in EC50 relative to parental NL4-3, CAM2BBY (CRF02): 2
  Fold change in EC50 relative to parental NL4-3, E0836M4 (D): 1
  Fold change in EC50 relative to parental NL4-3, KER2008 (A): 1
  Fold change in EC50 relative to parental NL4-3, NP1525 (CRF01): 1
  Fold change in EC50 relative to parental NL4-3, NP1695 (CRF02): 2
  Fold change in EC50 relative to parental NL4-3, TZA125 (C): 0.4
[3]; IN 124/125 GA
  Fold change in EC50 relative to parental NL4-3, KSM4030 (A): 2
  Fold change in EC50 relative to parental NL4-3, vGA (C): 4
[3]; IN 124/125 NA
  Fold change in EC50 relative to parental NL4-3, 99ET14 (C): 1
  Fold change in EC50 relative to parental NL4-3, NP1538 (B): 2
  Fold change in EC50 relative to parental NL4-3, vNA_1 (B): 2
  Fold change in EC50 relative to parental NL4-3, vNA_2 (CRF02): 3
[3]; IN 124/125 NV
  Fold change in EC50 relative to parental NL4-3, vNV (B): 2
[3]; IN 124/125 SA
  Fold change in EC50 relative to parental NL4-3, vSA_1 (B): 3
  Fold change in EC50 relative to parental NL4-3, vSA_2 (CRF02): 3
[3]; IN 124/125 TA
  Fold change in EC50 relative to parental NL4-3, vTA_1 (B): 2
  Fold change in EC50 relative to parental NL4-3, vTA_2 (CRF02): 1
[4]
  IC50: 0.047 ± 0.014 µM
[5]; recombinant NL4-3, IN 124/125 AA
  Fold change in EC50 relative to parental NL4-3, AA: 1
[5]; recombinant NL4-3, IN 124/125 AM
  Fold change in EC50 relative to parental NL4-3, AM: 0.4
[5]; recombinant NL4-3, IN 124/125 AT
  Fold change in EC50 relative to parental NL4-3, AT: 1
[5]; recombinant NL4-3, IN 124/125 AV
  Fold change in EC50 relative to parental NL4-3, AV: 2
[5]; recombinant NL4-3, IN 124/125 GA
  Fold change in EC50 relative to parental NL4-3, GA: 1
[5]; recombinant NL4-3, IN 124/125 GT
  Fold change in EC50 relative to parental NL4-3, GT: 1
[5]; recombinant NL4-3, IN 124/125 NA
  Fold change in EC50 relative to parental NL4-3, NA: 1
[5]; recombinant NL4-3, IN 124/125 NT
  Fold change in EC50 relative to parental NL4-3, NT: 1
[5]; recombinant NL4-3, IN 124/125 NV
  Fold change in EC50 relative to parental NL4-3, NV: 1
[5]; recombinant NL4-3, IN 124/125 SA
  Fold change in EC50 relative to parental NL4-3, SA: 1
[5]; recombinant NL4-3, IN 124/125 ST
  Fold change in EC50 relative to parental NL4-3, ST: 1
[5]; recombinant NL4-3, IN 124/125 TA
  Fold change in EC50 relative to parental NL4-3, TA: 1
[5]; recombinant NL4-3, IN 124/125 TM
  Fold change in EC50 relative to parental NL4-3, TM: 0.3
[5]; recombinant NL4-3, IN 124/125 TV
  Fold change in EC50 relative to parental NL4-3, TV: 1
